Tests used:
IKZF1 = biological target: T1, IKZF1 (Homo sapiens, UniProt Q13422+Q96SW2); assay: HEK293 HiBiT in vitro degradation of IKZF1; assay type: cell-based; details: for DC50 / IKZF1 Dmax: HEK293 HiBiT; for DC50: 18-24 hr incubation, normalized to DMSO control, read-out: IKZF1 EC50; for IKZF1 Dmax / Dmax: maximum degradation at the highest concentration tested; for Dmax: HEK293, HEK293 HiBiT
T1 construct: expressed in transfected cells
Procedure, shortened: (§1)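 Dox-inducible ([…] final, overnight) HEK293 Flp-In T-REx, single-copy target-HiBiT C-terminal fusion; compound serial dilution, 18-24 h, 37 °C; lytic Nano-Glo luminescence; EC50, Dmax.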

IKZF2 = IKZF2 (Homo sapiens, UniProt Q96SW2+Q9UKS7); assay: HEK293 HiBiT in vitro degradation of IKZF2; assay type: cell-based; design: expressed in transfected cells; details: for Dmax: HEK293, HEK293 HiBiT; for Dmax / IKZF2 Dmax: maximum degradation at the highest concentration tested; for DC50 / IKZF2 Dmax: HEK293 HiBiT; for DC50: 18-24 hr incubation, normalized to DMSO control, read-out: IKZF2 EC50
Procedure, shortened: as §1

IKZF2, sequence (Q9UKS7 1-500 isoform Q9UKS7-2): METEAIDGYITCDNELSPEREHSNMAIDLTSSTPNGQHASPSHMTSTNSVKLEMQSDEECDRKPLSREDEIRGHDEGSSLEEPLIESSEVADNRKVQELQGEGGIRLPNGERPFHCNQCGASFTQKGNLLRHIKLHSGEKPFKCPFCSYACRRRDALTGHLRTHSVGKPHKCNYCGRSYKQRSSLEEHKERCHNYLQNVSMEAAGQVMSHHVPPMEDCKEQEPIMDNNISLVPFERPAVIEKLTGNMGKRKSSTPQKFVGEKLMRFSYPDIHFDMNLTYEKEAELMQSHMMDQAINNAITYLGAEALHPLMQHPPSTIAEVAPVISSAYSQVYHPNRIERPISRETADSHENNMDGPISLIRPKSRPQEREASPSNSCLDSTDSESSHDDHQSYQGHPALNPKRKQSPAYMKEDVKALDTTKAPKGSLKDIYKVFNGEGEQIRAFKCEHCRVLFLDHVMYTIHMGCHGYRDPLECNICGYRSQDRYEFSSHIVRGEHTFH
IKZF2, sequence (Q96SW2 whole entry): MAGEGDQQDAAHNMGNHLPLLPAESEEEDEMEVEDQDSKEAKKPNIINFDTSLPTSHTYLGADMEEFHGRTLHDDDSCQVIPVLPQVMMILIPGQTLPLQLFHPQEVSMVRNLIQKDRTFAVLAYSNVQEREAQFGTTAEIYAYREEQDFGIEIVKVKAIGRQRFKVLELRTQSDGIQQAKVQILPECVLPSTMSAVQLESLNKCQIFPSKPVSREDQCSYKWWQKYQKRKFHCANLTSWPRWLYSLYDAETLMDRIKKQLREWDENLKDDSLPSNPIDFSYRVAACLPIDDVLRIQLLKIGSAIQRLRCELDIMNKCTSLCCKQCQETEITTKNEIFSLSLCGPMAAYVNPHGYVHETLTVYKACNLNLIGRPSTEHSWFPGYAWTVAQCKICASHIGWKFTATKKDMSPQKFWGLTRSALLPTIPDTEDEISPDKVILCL
IKZF2, sequence (Q16531 whole entry partner): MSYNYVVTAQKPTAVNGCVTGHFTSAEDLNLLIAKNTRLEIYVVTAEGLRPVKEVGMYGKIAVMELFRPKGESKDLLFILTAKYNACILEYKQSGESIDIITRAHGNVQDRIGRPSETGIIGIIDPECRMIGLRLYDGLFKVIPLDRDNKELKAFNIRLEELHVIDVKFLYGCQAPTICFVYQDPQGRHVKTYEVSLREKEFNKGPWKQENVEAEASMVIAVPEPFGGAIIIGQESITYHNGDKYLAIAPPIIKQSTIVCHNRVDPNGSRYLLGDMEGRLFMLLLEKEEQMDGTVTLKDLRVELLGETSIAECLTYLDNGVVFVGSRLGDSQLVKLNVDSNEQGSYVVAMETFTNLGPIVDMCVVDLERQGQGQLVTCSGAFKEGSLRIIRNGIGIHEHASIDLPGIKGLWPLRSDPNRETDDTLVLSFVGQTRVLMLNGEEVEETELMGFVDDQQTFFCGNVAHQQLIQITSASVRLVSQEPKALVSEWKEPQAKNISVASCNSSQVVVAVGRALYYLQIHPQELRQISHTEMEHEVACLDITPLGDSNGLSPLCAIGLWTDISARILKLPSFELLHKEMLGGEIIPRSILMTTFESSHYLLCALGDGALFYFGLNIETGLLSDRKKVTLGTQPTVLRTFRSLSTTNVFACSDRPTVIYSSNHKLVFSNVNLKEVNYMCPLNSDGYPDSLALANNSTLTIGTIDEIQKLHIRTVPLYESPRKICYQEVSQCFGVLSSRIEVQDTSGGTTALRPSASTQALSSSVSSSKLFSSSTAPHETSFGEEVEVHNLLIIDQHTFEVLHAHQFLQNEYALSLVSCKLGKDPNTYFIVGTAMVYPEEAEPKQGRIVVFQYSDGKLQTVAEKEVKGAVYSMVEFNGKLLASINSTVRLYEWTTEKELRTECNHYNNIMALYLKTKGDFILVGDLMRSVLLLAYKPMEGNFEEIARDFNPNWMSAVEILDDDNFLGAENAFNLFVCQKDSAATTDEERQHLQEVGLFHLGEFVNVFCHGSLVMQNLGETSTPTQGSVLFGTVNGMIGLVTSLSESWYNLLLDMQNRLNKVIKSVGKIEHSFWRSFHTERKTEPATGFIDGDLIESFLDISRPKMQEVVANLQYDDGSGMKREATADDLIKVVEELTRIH
T1 sequence (Q13422 whole entry): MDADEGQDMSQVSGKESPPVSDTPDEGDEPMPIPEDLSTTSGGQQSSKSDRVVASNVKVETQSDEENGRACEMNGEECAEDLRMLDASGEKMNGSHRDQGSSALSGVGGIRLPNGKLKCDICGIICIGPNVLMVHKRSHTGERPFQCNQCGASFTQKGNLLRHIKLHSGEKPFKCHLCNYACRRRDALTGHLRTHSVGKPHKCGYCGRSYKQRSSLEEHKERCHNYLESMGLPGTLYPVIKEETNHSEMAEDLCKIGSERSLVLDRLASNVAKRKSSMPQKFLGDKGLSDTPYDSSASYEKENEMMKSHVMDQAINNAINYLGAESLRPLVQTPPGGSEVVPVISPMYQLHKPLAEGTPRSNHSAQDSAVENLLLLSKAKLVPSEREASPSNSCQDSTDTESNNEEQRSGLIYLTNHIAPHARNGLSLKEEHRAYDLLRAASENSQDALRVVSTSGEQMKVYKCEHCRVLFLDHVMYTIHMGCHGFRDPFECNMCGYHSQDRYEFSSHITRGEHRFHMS
T1 sequence (Q96SW2 whole entry): as the sequence (Q96SW2 whole entry) above
T1 sequence (Q16531 whole entry partner): as the sequence (Q16531 whole entry partner) above

| DC50 (IKZF1) [µM] | Dmax (IKZF2) [%] | DC50 (IKZF2) [µM] | IKZF1 Dmax (IKZF1) [%] | IKZF2 Dmax (IKZF2) [%] | Dmax (IKZF1) [%] | Structure (SMILES) |
| --- | --- | --- | --- | --- | --- | --- |
| > 1 | 69 | 0.172 |  |  |  | O=C1CCC(N2Cc3cc(C[C@H]4CCCC[C@@H]4NCc4nccs4)ccc3C2=O)C(=O)N1 (stereo partly drawn) [Example 37, 3-(1-oxo-5-(((1R,2S)-2-((thiazol-2-ylmethyl)amino)cyclohexyl)methyl)isoindolin-2-yl)piperidine-2,6-dione] |
| > 1 | 96 | 0.009 |  |  |  | CC(N[C@H]1CCCC[C@@H]1Cc1ccc2c(c1)CN(C1CCC(=O)NC1=O)C2=O)C1CCCO1 (single isomer, unassigned) [Example 253] |
| > 1 | 93 | 0.011 |  |  |  | O=C1CC[C@@H](N2Cc3c(ccc(C[C@H]4OCCC[C@@H]4NC4CCCCC4)c3F)C2=O)C(=O)N1 (single isomer, unassigned) [Example 339] |
| 0.076 |  | 0.006 | 62 | 98 |  | N#CC1CCC(N[C@H]2CCCC[C@@H]2Cc2ccc3c(c2)CN(C2CCC(=O)NC2=O)C3=O)CC1 (single isomer, unassigned) [Example 268] |
| 0.07 | 97 | 0.003 |  |  | 27 | CC1(C)CCC(N[C@H]2CCCC[C@@H]2Cc2ccc3c(c2)CN(C2CCC(=O)NC2=O)C3=O)CC1 (stereo partly drawn) [Example 27, 3-(5-(((1R,2S)-2-((4,4-dimethylcyclohexyl)amino)cyclohexyl)methyl)-1-oxoisoindolin-2-yl)piperidine-2,6-dione] |
| 0.101 | 89 | 0.046 |  |  | 33 | O=C1CCC(N2Cc3cc(C[C@H]4CCCC[C@@H]4NCc4cscn4)ccc3C2=O)C(=O)N1 (stereo partly drawn) [Example 36, 3-(1-oxo-5-(((1R,2S)-2-((thiazol-4-ylmethyl)amino)cyclohexyl)methyl)isoindolin-2-yl)piperidine-2,6-dione] |
| > 1 | 48 | 0.08 |  |  |  | O=C1CCC(N2Cc3cc(C[C@H]4CCCC[C@@H]4N(CC4CCOCC4)CC4CCOCC4)ccc3C2=O)C(=O)N1 (stereo partly drawn) [Example 70] |
| > 1 | 75 | 0.069 |  |  |  | CC(C)(C)CCN(CCC(C)(C)C)[C@H]1CCCC[C@@H]1Cc1ccc2c(c1F)CN(C1CCC(=O)NC1=O)C2=O (stereo partly drawn) [Example 90, 3-(5-(((1R,2S)-2-(bis(3,3-dimethylbutyl)amino)cyclohexyl)methyl)-4-fluoro-1-oxoisoindolin-2-yl)piperidine-2,6-dione] |
| > 1 | 86 | 0.105 |  |  |  | O=C1CCC(N2Cc3c(ccc(C[C@H]4OCCC[C@@H]4NC4CCOC4)c3F)C2=O)C(=O)N1 (single isomer, unassigned) [Example 296] |
| > 1 | 91 | 0.031 |  |  |  | O=C1CCC(N2Cc3cc(C[C@H]4CCCC[C@@H]4NCC4COC4)ccc3C2=O)C(=O)N1 (stereo partly drawn) [Example 68, 3-(5-(((1R,2S)-2-((oxetan-3-ylmethyl)amino)cyclohexyl)methyl)-1-oxoisoindolin-2-yl)piperidine-2,6-dione] |
| > 1 |  | 0.009 |  | 95 |  | CC(N[C@H]1CCCC[C@@H]1Cc1ccc2c(c1)CN(C1CCC(=O)NC1=O)C2=O)C1(C(F)F)CC1 (stereo partly drawn) [Example 312] |
| > 1 | 83 | 0.017 |  |  |  | CO[C@@H]1CCC[C@H](Cc2ccc3c(c2)CN(C2CCC(=O)NC2=O)C3=O)[C@H]1NC1CCC(F)(F)CC1 (stereo partly drawn) [Example 164] |
| 0.088 |  | 0.008 | 28 | 98 |  | O=C1CCC(N2Cc3c(ccc(C[C@H]4CCCC[C@@H]4NCC4COC4)c3F)C2=O)C(=O)N1 (stereo partly drawn) [Example 186] |
| 0.168 |  | 0.002 | 34 | 95 |  | O=C1CCC(N2Cc3cc(C[C@H]4CCCC[C@@H]4NC4CCC(OC(F)(F)F)CC4)ccc3C2=O)C(=O)N1 (single isomer, unassigned) [Example 146] |
| > 1 |  | 0.024 |  | 95 |  | CC(N[C@H]1CCCO[C@@H]1Cc1ccc2c(c1F)CN(C1CCC(=O)NC1=O)C2=O)C1COC1 (stereo partly drawn) [Example 319] |
| > 1 | 92 | 0.016 |  |  |  | CCOCC(C)N[C@H]1CCCC[C@@H]1Cc1ccc2c(c1)CN(C1CCC(=O)NC1=O)C2=O (stereo partly drawn) [Example 78] |
| > 1 | 91 | 0.005 |  |  |  | O=C1CCC(N2Cc3cc(C[C@H]4CC[C@@H](F)C[C@@H]4NC4CCCCC4)ccc3C2=O)C(=O)N1 (stereo partly drawn) [Example 355] |
| > 1 | 86 | 0.034 |  |  |  | O=C1CCC(N2Cc3cc(C[C@H]4CCCC[C@@H]4NCc4cc(F)ccc4F)ccc3C2=O)C(=O)N1 (stereo partly drawn) [Example 22, 3-(5-(((1R,2S)-2-((2,5-difluorobenzyl)amino)cyclohexyl)methyl)-1-oxoisoindolin-2-yl)piperidine-2,6-dione] |

| DC50 (IKZF1) [µM] | Dmax (IKZF2) [%] | DC50 (IKZF2) [µM] | IKZF1 Dmax (IKZF1) [%] | IKZF2 Dmax (IKZF2) [%] | Dmax (IKZF1) [%] | Structure (SMILES) |
| --- | --- | --- | --- | --- | --- | --- |
| > 1 |  | 0.033 |  | 84 |  | CC(N[C@H]1CCCC[C@@H]1Cc1ccc2c(c1)CN(C1CCC(=O)NC1=O)C2=O)C1CCCO1 (single isomer, unassigned) [Example 254] |
| > 1 | 72 | 0.054 |  |  |  | CCC(C)(C)N[C@H]1CCCC[C@@H]1Cc1ccc2c(c1)CN(C1CCC(=O)NC1=O)C2=O (stereo partly drawn) [Example 322, 3-(1-oxo-5-(((1R,2S)-2-(tert-pentylamino)cyclohexyl)methyl)isoindolin-2-yl)piperidine-2,6-dione] |
| > 1 | 95 | 0.007 |  |  |  | O=C1CCC(N2Cc3cc(C[C@H]4CCCC[C@@H]4NC4CCOC4)ccc3C2=O)C(=O)N1 (stereo partly drawn) [Example 73] |
| 0.041 | 98 | 0.002 |  |  | 45 | [2H]C1(N[C@H]2CCCC[C@@H]2Cc2ccc3c(c2F)CN(C2CCC(=O)NC2=O)C3=O)CC2(CC2)C1 (stereo partly drawn) [Example 213] |
| > 1 | 77 | 0.075 |  |  |  | O=C1CCC(N2Cc3cc(C[C@H]4CCCC[C@@H]4NCc4cnccn4)ccc3C2=O)C(=O)N1 (stereo partly drawn) [Example 59, 3-(1-oxo-5-(((1R,2S)-2-((pyrazin-2-ylmethyl)amino)cyclohexyl)methyl)isoindolin-2-yl)piperidine-2,6-dione] |
| > 1 |  | 0.226 |  | 77 |  | O=C1CCC(N2Cc3cc(C[C@H]4CC(CO)CC[C@@H]4NC4CCCCC4)ccc3C2=O)C(=O)N1 (single isomer, unassigned) [Example 383] |
| > 1 | 68 | 0.079 |  |  |  | O=C1CCC(N2Cc3cc(C[C@H]4CCCC[C@@H]4NCc4cc(Cl)cc(Cl)c4)ccc3C2=O)C(=O)N1 (stereo partly drawn) [Example 13, 3-(5-(((1R,2S)-2-((3,5-dichlorobenzyl)amino)cyclohexyl)methyl)-1-oxoisoindolin-2-yl)piperidine-2,6-dione] |
| > 1 |  | 0.055 |  | 76 |  | CC(N[C@H]1CCCO[C@@H]1Cc1ccc2c(c1F)CN(C1CCC(=O)NC1=O)C2=O)C1CCOCC1 (single isomer, unassigned) [Example 298] |
| > 1 | 96 | 0.02 |  |  |  | CC(N[C@H]1CCCO[C@@H]1Cc1ccc2c(c1F)CN(C1CCC(=O)NC1=O)C2=O)C1COC1 (stereo partly drawn) [Example 318] |
| 0.122 | 98 | 0.006 |  |  | 34 | C[C@H]1CCCC(N[C@H]2CCCC[C@@H]2Cc2ccc3c(c2)CN(C2CCC(=O)NC2=O)C3=O)C1 (stereo partly drawn) [Example 236] |
| 0.208 |  | 0.002 | 39 | 96 |  | C[C@H]1CCCC(N[C@H]2CCCC[C@@H]2Cc2ccc3c(c2)CN(C2CCC(=O)NC2=O)C3=O)C1 (stereo partly drawn) [Example 237] |
| 0.094 | 98 | 0.018 |  |  | 19 | CCCCN[C@H]1CCCC[C@@H]1Cc1ccc2c(c1)CN(C1CCC(=O)NC1=O)C2=O (stereo partly drawn) [Example 128] |
| 0.061 | 94 | 0.012 |  |  | 34 | CC1(C)CC2(CC(N[C@H]3CCCC[C@@H]3Cc3ccc4c(c3)CN(C3CCC(=O)NC3=O)C4=O)C2)C1 (stereo partly drawn) [Example 100] |
| 0.056 | 97 | 0.003 |  |  | 30 | O=C1CCC(N2Cc3cc(C[C@H]4CCCC[C@@H]4NC4CC5CCC(C4)O5)ccc3C2=O)C(=O)N1 (stereo partly drawn) [Example 112] |
| 0.27 | 98 | 0.02 |  |  | 28 | O=C1CCC(N2Cc3cc(C[C@H]4CCCC[C@@H]4NC4CCc5cn[nH]c5C4)ccc3C2=O)C(=O)N1 (stereo partly drawn) [Example 165] |
| > 1 | 86 | 0.031 |  |  |  | CC(C)N[C@H]1CC=CC[C@@H]1Cc1ccc2c(c1)CN(C1CCC(=O)NC1=O)C2=O (stereo partly drawn) [Example 54, 3-(5-(((1R,6S)-6-(isopropylamino)cyclohex-3-en-1-yl)methyl)-1-oxoisoindolin-2-yl)piperidine-2,6-dione] |
| > 1 | 97 | 0.003 |  |  |  | CCC(C)N[C@H]1CCCO[C@@H]1Cc1ccc2c(c1F)CN(C1CCC(=O)NC1=O)C2=O (stereo partly drawn) [Example 304, 3-(5-(((2R,3S)-3-(sec-butylamino)tetrahydro-2H-pyran-2-yl)methyl)-4-fluoro-1-oxoisoindolin-2-yl)piperidine-2,6-dione] |
| > 1 | 55 | 0.076 |  |  |  | O=C1CCC(N2Cc3cc(C[C@H]4CCCCC[C@@H]4NC4CCC(F)(F)CC4)ccc3C2=O)C(=O)N1 (stereo partly drawn) [Example 340] |

— patent US11897862B2 (Gilead Sciences, Inc., priority 2022, dated 2024)
